Measurements published in BindingDB's records for doi:10.1016/j.bmcl.2009.01.089 (Gsk, 2009).
pIC50: −log10 of the molar value.

Molecular target: T1, Gag-Pol polyprotein [1148-1435] (Human immunodeficiency virus 1, UniProt P04585)
T1 construct: 1148-1435
Assay: HIV Integrase Strand Transfer Scintillation Proximity Assay (SPA)
Procedure: Purified recombinant integrase was first combined in a complex with biotinylated donor DNA- streptavidin-coated SPA beads. The complex was preincubated with the test compound, and strand transfer was initiated with a radiolabeled target DNA substrate. After incubation, the incorporated radioactivity was read in a Wallac MicroBeta scintillation plate reader using a counting protocol that corrected for optical cross talk between wells.

| Structure (SMILES) | pIC50 (pH 7.2, 37 °C) | pIC50 |
| --- | --- | --- |
| Cc1ccc(S(=O)(=O)Nc2nc(-c3nnc(Cc4ccc(F)cc4)o3)c(O)c3ncccc23)cc1 [N-(7-{5-[(4-fluorophenyl)methyl]-1,3,4-oxadiazol-2-yl}-8-hydroxy-1,6-naphthyridin-5-yl)-4-methylbenzene-1-sulfonamide] | 7.38 |  |
| NC(=O)c1nc(-c2nnc(Cc3ccc(F)cc3)o2)c(O)c2ncccc12 [7-{5-[(4-fluorophenyl)methyl]-1,3,4-oxadiazol-2-yl}-8-hydroxy-1,6-naphthyridine-5-carboxamide] |  | 7.00 |
